{"source": "ChEMBL document CHEMBL4024742", "about": "“Pharmaceutical Approaches to Target Antibiotic Resistance Mechanisms” (J Med Chem, 2017)", "key": {"Escherichia coli [1]": {"system": "Escherichia coli", "experiment": "Potentiation of florfenicol induced-antimicrobial activity against multi drug-resistant Escherichia coli AG112 assessed as fold reduction in florfenicol MIC at 100 ug/ml by broth microdilution method", "format": "functional"}, "Escherichia coli [2]": {"system": "Escherichia coli", "experiment": "Potentiation of ciprofloxacin induced-antimicrobial activity against multi drug-resistant Escherichia coli AG112 assessed as fold reduction in ciprofloxacin MIC at 100 ug/ml by broth microdilution method", "format": "functional"}, "Escherichia coli [3]": {"system": "Escherichia coli", "experiment": "Potentiation of tetracycline induced-antimicrobial activity against multi drug-resistant Escherichia coli AG112 assessed as fold reduction in tetracycline MIC at 100 ug/ml by broth microdilution method", "format": "functional"}, "[4]": {"experiment": "Inhibition of Escherichia coli PBP2"}, "Escherichia coli [5]": {"system": "Escherichia coli", "experiment": "Antimicrobial activity against Escherichia coli", "format": "functional"}, "Enterobacter": {"system": "Enterobacter", "experiment": "Antimicrobial activity against Enterobacter", "format": "functional"}, "[6]": {"experiment": "Inhibition of bacterial beta-lactamase TEM-1 using nitrocefin as substrate by spectrophotometric analysis", "design": "species or system Bacteria"}, "[7]": {"experiment": "Inhibition of bacterial beta-lactamase CTX-M-9 using nitrocefin as substrate by spectrophotometric analysis", "design": "species or system Bacteria"}, "[8]": {"experiment": "Inhibition of bacterial beta-lactamase CMY-2 using nitrocefin as substrate by spectrophotometric analysis", "design": "species or system Bacteria"}, "[9]": {"experiment": "Inhibition of bacterial beta-lactamase KPC-2 using nitrocefin as substrate by spectrophotometric analysis", "design": "species or system Bacteria"}, "Pseudomonas aeruginosa [10]": {"system": "Pseudomonas aeruginosa", "experiment": "Antimicrobial activity against Pseudomonas aeruginosa", "format": "functional"}, "Pseudomonas aeruginosa [11]": {"system": "Pseudomonas aeruginosa", "experiment": "Antibiofilm activity against wild-type Pseudomonas aeruginosa PAO1 after 24 hrs by crystal violet staining based assay", "format": "functional", "conditions": "PAO1, 24 h"}, "Staphylococcus aureus [12]": {"system": "Staphylococcus aureus", "experiment": "Antibacterial activity against glycopeptide-intermediate Staphylococcus aureus by broth microdilution method", "format": "functional"}, "[13]": {"molecular_target": "T1, Quinolone resistance protein NorA (Staphylococcus aureus, UniProt P0A0J7)", "T1 sequence (P0A0J7 whole entry)": "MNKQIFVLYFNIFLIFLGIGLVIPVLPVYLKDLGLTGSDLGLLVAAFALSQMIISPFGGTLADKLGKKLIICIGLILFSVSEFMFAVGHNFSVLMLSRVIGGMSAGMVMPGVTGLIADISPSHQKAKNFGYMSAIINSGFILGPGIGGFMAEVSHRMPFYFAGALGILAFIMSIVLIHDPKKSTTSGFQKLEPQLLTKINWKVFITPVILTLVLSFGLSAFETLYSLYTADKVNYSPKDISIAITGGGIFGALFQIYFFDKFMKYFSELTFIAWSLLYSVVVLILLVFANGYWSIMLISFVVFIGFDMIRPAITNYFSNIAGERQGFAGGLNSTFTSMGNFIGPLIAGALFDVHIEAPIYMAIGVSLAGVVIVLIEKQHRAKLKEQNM", "experiment": "Inhibition of Staphylococcus aureus 1199B NorA assessed as reduction in ethidium bromide efflux by fluorescence assay"}, "Staphylococcus aureus [14]": {"system": "Staphylococcus aureus", "experiment": "Potentiation of ciprofloxacin induced-antimicrobial activity against Staphylococcus aureus ATCC 29213 assessed as fold reduction in ciprofloxacin MIC at 31.25 uM by broth microdilution method", "format": "functional"}, "Staphylococcus aureus [15]": {"system": "Staphylococcus aureus", "experiment": "Antibacterial activity against methicillin-sensitive Staphylococcus aureus by broth microdilution method", "format": "functional"}, "Staphylococcus aureus [16]": {"system": "Staphylococcus aureus", "experiment": "Antibiofilm activity against methicillin-resistant Staphylococcus aureus BAA-44 at 100 uM after 24 hrs by crystal violet staining based assay", "format": "functional", "conditions": "BAA-44, 24 h"}, "Acinetobacter baumannii": {"system": "Acinetobacter baumannii", "experiment": "Antibiofilm activity against multi drug-resistant Acinetobacter baumannii ATCC 19606 assessed as biofilm dispersion after 24 hrs by crystal violet staining based assay", "format": "functional", "conditions": "ATCC 19606 = CIP 70.34 = JCM 6841, 24 h"}, "Staphylococcus aureus [17]": {"system": "Staphylococcus aureus", "experiment": "Antibiofilm activity against methicillin-resistant Staphylococcus aureus BAA-44 after 24 hrs by crystal violet staining based assay", "format": "functional", "conditions": "BAA-44, 24 h"}, "Escherichia coli [18]": {"system": "Escherichia coli", "experiment": "Potentiation of piperacillin induced-antimicrobial activity against Escherichia coli AB1157 assessed as fold reduction in piperacillin MIC at 12.5 uM by broth microdilution method", "format": "functional"}, "Escherichia coli [19]": {"system": "Escherichia coli", "experiment": "Potentiation of levofloxacin induced-antimicrobial activity against Escherichia coli AB1157 assessed as fold reduction in levofloxacin MIC at 12.5 uM by broth microdilution method", "format": "functional"}, "Escherichia coli [20]": {"system": "Escherichia coli", "experiment": "Potentiation of ciprofloxacin induced-antimicrobial activity against Escherichia coli AB1157 assessed as fold reduction in ciprofloxacin MIC at 12.5 uM by broth microdilution method", "format": "functional"}, "Escherichia coli [21]": {"system": "Escherichia coli", "experiment": "Potentiation of 0.016 ug/ml ciprofloxacin induced-antimicrobial activity against Escherichia coli AB1157 assessed as fold reduction in cell viability at 3.13 uM after 4 hrs by time kill assay", "format": "functional"}, "Staphylococcus aureus [22]": {"system": "Staphylococcus aureus", "experiment": "Antibiofilm activity against methicillin-resistant Staphylococcus aureus BAA-1770", "format": "functional"}, "Staphylococcus aureus [23]": {"system": "Staphylococcus aureus", "experiment": "Antibiofilm activity against methicillin-resistant Staphylococcus aureus BAA-1765", "format": "functional"}, "Staphylococcus aureus [24]": {"system": "Staphylococcus aureus", "experiment": "Antibiofilm activity against methicillin-resistant Staphylococcus aureus BAA-43300", "format": "functional"}, "Staphylococcus aureus [25]": {"system": "Staphylococcus aureus", "experiment": "Inhibition of biofilm formation in Staphylococcus aureus ATCC 43866 at 25 ug/ml after 24 hrs by MTT assay", "format": "functional", "conditions": "ATCC 43866, 24 h"}, "[26]": {"system": "Staphylococcus epidermidis", "experiment": "Antibacterial activity against planktonic Staphylococcus epidermidis RP62A after 24 hrs by broth microdilution method", "format": "functional"}, "Staphylococcus aureus [27]": {"system": "Staphylococcus aureus", "experiment": "Antibacterial activity against planktonic Staphylococcus aureus ATCC 29213 after 24 hrs by broth microdilution method", "format": "functional", "conditions": "ATCC 29213, 24 h"}, "Staphylococcus aureus [28]": {"system": "Staphylococcus aureus", "experiment": "Inhibition of biofilm formation in Staphylococcus aureus ATCC 29213 at 6.2 ug/ml after 24 hrs by MTT assay", "format": "functional", "conditions": "ATCC 29213, 24 h"}, "Staphylococcus aureus [29]": {"system": "Staphylococcus aureus", "experiment": "Antibacterial activity against planktonic Staphylococcus aureus ATCC 43866 after 24 hrs by broth microdilution method", "format": "functional", "conditions": "ATCC 43866, 24 h"}, "Staphylococcus aureus [30]": {"system": "Staphylococcus aureus", "experiment": "Inhibition of biofilm formation in Staphylococcus aureus ATCC 25923 at 0.045 ug/ml after 24 hrs by MTT assay", "format": "functional", "conditions": "ATCC 25923, 24 h"}, "[31]": {"system": "Staphylococcus epidermidis", "experiment": "Inhibition of biofilm formation in Staphylococcus epidermidis RP62A at 0.045 ug/ml after 24 hrs by MTT assay", "format": "functional"}, "[32]": {"system": "Staphylococcus epidermidis", "experiment": "Inhibition of biofilm formation in Staphylococcus epidermidis DSM 3269 at 0.045 ug/ml after 24 hrs by MTT assay", "format": "functional", "conditions": "DSM 3269, 24 h"}, "Staphylococcus aureus [33]": {"system": "Staphylococcus aureus", "experiment": "Inhibition of biofilm formation in Staphylococcus aureus ATCC 29213 at 0.045 ug/ml after 24 hrs by MTT assay", "format": "functional", "conditions": "ATCC 29213, 24 h"}, "Staphylococcus aureus [34]": {"system": "Staphylococcus aureus", "experiment": "Inhibition of biofilm formation in Staphylococcus aureus 657 at 0.045 ug/ml after 24 hrs by MTT assay", "format": "functional", "conditions": "Staphylococcus aureus, 657, 24 h"}, "Staphylococcus aureus [35]": {"system": "Staphylococcus aureus", "experiment": "Inhibition of biofilm formation in Staphylococcus aureus 702 at 0.045 ug/ml after 24 hrs by MTT assay", "format": "functional", "conditions": "Staphylococcus aureus, 702, 24 h"}}, "data": [{"molecule": "c1ccc2c(CN3CCNCC3)cccc2c1", "values": [{"measurement": "fold change (FC)", "setting": "Escherichia coli [1]", "result": 4}, {"measurement": "fold change (FC)", "setting": "Escherichia coli [2]", "result": 4}, {"measurement": "fold change (FC)", "setting": "Escherichia coli [3]", "result": 4}]}, {"molecule": "CC(=O)NNC(=O)[C@@H]1CC[C@@H]2CN1C(=O)N2OS(=O)(=O)[O-].[Na+]", "values": [{"measurement": "IC50", "setting": "[4]", "result": 3.2, "unit": "µM"}, {"measurement": "MIC", "setting": "Escherichia coli [5]", "result": "≤ 2", "unit": "µg/mL"}, {"measurement": "MIC", "setting": "Enterobacter", "result": "≤ 2", "unit": "µg/mL"}, {"measurement": "IC50", "setting": "[6]", "result": "0.008 to 0.327", "unit": "µM"}, {"measurement": "IC50", "setting": "[7]", "result": "0.008 to 0.327", "unit": "µM"}, {"measurement": "IC50", "setting": "[8]", "result": "0.008 to 0.327", "unit": "µM"}, {"measurement": "IC50", "setting": "[9]", "result": "0.008 to 0.327", "unit": "µM"}, {"measurement": "MIC", "setting": "Pseudomonas aeruginosa [10]", "result": "≤ 2", "unit": "µg/mL"}]}, {"molecule": "Cc1cc2nc(N)[nH]c2cc1C", "values": [{"measurement": "IC50", "setting": "Pseudomonas aeruginosa [11]", "result": 4, "unit": "µM"}]}, {"molecule": "COc1cc(O)c2c(C)c(-c3ccccc3)c(=O)[nH]c2c1", "values": [{"measurement": "MIC", "setting": "Staphylococcus aureus [12]", "result": "17.6 to 35.1", "unit": "µg/mL"}, {"measurement": "IC50", "setting": "[13]", "result": 18, "unit": "µM"}, {"measurement": "fold change (FC)", "setting": "Staphylococcus aureus [14]", "result": 4}, {"measurement": "MIC", "setting": "Staphylococcus aureus [15]", "result": "17.6 to 35.1", "unit": "µg/mL"}]}, {"molecule": "CCCCOc1ccc(/C=C(\\C)Cn2cc(CCCCCc3c[nH]c(N)n3)nn2)cc1", "values": [{"measurement": "inhibition at 100 µM", "setting": "Staphylococcus aureus [16]", "result": "> 94", "unit": "%"}, {"measurement": "IC50", "setting": "Acinetobacter baumannii", "result": 44.7, "unit": "µM"}, {"measurement": "IC50", "setting": "Staphylococcus aureus [17]", "result": 8.55, "unit": "µM"}]}, {"molecule": "CC1(C)Cc2c(C#N)c(SCCc3ccccc3)nc(N3CCOCC3)c2CO1", "values": [{"measurement": "fold change (FC)", "setting": "Escherichia coli [18]", "result": 8}, {"measurement": "fold change (FC)", "setting": "Escherichia coli [19]", "result": 4}, {"measurement": "fold change (FC)", "setting": "Escherichia coli [20]", "result": 2}, {"measurement": "fold change (FC)", "setting": "Escherichia coli [21]", "result": 10000}]}, {"molecule": "CCCCCc1ccc(C(=O)NCCn2cc(CCCCCc3c[nH]c(NCc4ccc(CCCC)cc4)n3)nn2)cc1", "values": [{"measurement": "IC50", "setting": "Staphylococcus aureus [22]", "result": "16 to 18", "unit": "µM"}, {"measurement": "IC50", "setting": "Staphylococcus aureus [23]", "result": "16 to 18", "unit": "µM"}, {"measurement": "IC50", "setting": "Staphylococcus aureus [24]", "result": "16 to 18", "unit": "µM"}]}, {"molecule": "Cc1nn(C)c([N-]C(=O)c2ccc([N+](=O)[O-])cc2)c1[N+]#N", "values": [{"measurement": "inhibition at 25 µg/mL", "setting": "Staphylococcus aureus [25]", "result": "69 to 96", "unit": "%"}, {"measurement": "MIC", "setting": "[26]", "result": "1.5 to 12.5", "unit": "µg/mL"}, {"measurement": "MIC", "setting": "Staphylococcus aureus [27]", "result": "1.5 to 12.5", "unit": "µg/mL"}, {"measurement": "inhibition at 6.2 µg/mL", "setting": "Staphylococcus aureus [28]", "result": 86.5, "unit": "%"}, {"measurement": "MIC", "setting": "Staphylococcus aureus [29]", "result": "1.5 to 12.5", "unit": "µg/mL"}]}, {"molecule": "O=C(c1cc(Br)ccc1O)c1[nH]c(Cl)c(Cl)c1Br", "values": [{"measurement": "inhibition at 0.045 µg/mL", "setting": "Staphylococcus aureus [30]", "result": "> 50", "unit": "%"}, {"measurement": "inhibition at 0.045 µg/mL", "setting": "[31]", "result": "> 50", "unit": "%"}, {"measurement": "inhibition at 0.045 µg/mL", "setting": "[32]", "result": "> 50", "unit": "%"}, {"measurement": "inhibition at 0.045 µg/mL", "setting": "Staphylococcus aureus [33]", "result": "> 50", "unit": "%"}, {"measurement": "inhibition at 0.045 µg/mL", "setting": "Staphylococcus aureus [34]", "result": "> 50", "unit": "%"}, {"measurement": "inhibition at 0.045 µg/mL", "setting": "Staphylococcus aureus [35]", "result": "> 50", "unit": "%"}]}]}
